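Each compound was tested at five concentrations against cells in 96-well plates for 48 hours. GI50 is the concentration that inhibits growth by half. TGI: total growth inhibition.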
Legend:
Assay in all cases: inhibition of tumour cell growth, NCI panel, 48 h
[1] = test system: COLO 205 colon
[2] = test system: HCT-15 colon
[3] = test system: OVCAR-4 ovarian
[4] = test system: HS 578T breast
[5] = test system: T-47D breast
[6] = test system: OVCAR-5 ovarian
[7] = test system: MDA-MB-435
[8] = test system: HT29 colon
[9] = test system: NCI-H226 lung
[10] = test system: UO-31 renal
[11] = test system: SF-539 CNS
[12] = test system: SF-295 CNS
[13] = test system: A549 NSCLC
[14] = test system: SN12C renal
[15] = test system: OVCAR-8 ovarian
[16] = test system: HL-60(TB) leukemia
[17] = test system: PC-3 prostate
[18] = test system: SR leukemia
[19] = test system: RPMI-8226 leukemia
[20] = test system: MOLT-4 leukemia
[21] = test system: IGROV1 ovarian
[22] = test system: CCRF-CEM leukemia
[23] = test system: SNB-75 CNS
[24] = test system: UACC-62 melanoma
[25] = test system: NCI-H522 lung
[26] = test system: HCT-116 colon
[27] = test system: K-562 leukemia
[28] = test system: SK-OV-3 ovarian
[29] = test system: CAKI-1 renal
[30] = test system: M14 melanoma

Work on `CCOc1ccc(/C=N/NC(=O)Cn2nc(Cc3ccc(OC)cc3)c3onc(C)c3c2=O)cc1` yielded a GI50 [1] of 40 µM, a TGI [1] greater than 100 µM and a GI50 [2] of 15.1 µM. For the same compound, the TGI [2] was greater than 100 µM, the GI50 [3] was 10.8 µM and the TGI [3] was 25.3 µM. It also gave a GI50 [4] of 4.26 µM, a TGI [4] of 29 µM and a GI50 [5] of 3.46 µM. It also gave a TGI [5] of 22.3 µM, a GI50 [6] of 14.4 µM and a TGI [6] of 51.8 µM. The GI50 [7] was 25.7 µM, the TGI [7] was greater than 100 µM and the GI50 [8] was 12.3 µM. For the same compound, the TGI [8] was 32.9 µM, the GI50 [9] was 3.43 µM and the TGI [9] was 15.9 µM. The GI50 [10] was 4.08 µM, the TGI [10] was 19.5 µM and the GI50 [11] was 7.35 µM. It also gave a TGI [11] of 20 µM, a GI50 [12] of 6.77 µM and a TGI [12] of 21.8 µM. The GI50 [13] was 3.43 µM, the TGI [13] was 13.1 µM and the GI50 [14] was 3.42 µM. The TGI [14] was 13.3 µM, the GI50 [15] was 11.2 µM and the TGI [15] was 42.1 µM. For the same compound, the GI50 [16] was 51.1 µM, the TGI [16] was greater than 100 µM and the GI50 [17] was 12.4 µM. The TGI [17] was 84.8 µM, the GI50 [18] was 40.3 µM and the TGI [18] was greater than 100 µM. The GI50 [19] was 78.2 µM, the TGI [19] was greater than 100 µM and the GI50 [20] was 29.8 µM. It also gave a TGI [20] greater than 100 µM, a GI50 [21] of 15.3 µM and a TGI [21] of 43 µM. The GI50 [22] was 33.4 µM, the TGI [22] was greater than 100 µM and the GI50 [23] was 1.64 µM. It also gave a TGI [23] of 3.42 µM, a GI50 [24] of 13.2 µM and a TGI [24] of 32.7 µM. It also gave a GI50 [25] of 14.5 µM, a TGI [25] of 37.7 µM and a GI50 [26] of 3.39 µM. It also gave a TGI [26] of 11.6 µM, a GI50 [27] of 37.6 µM and a TGI [27] greater than 100 µM. For the same compound, the GI50 [28] was 4.12 µM, the TGI [28] was 14.5 µM and the GI50 [29] was 3.8 µM. It also gave a TGI [29] of 14.8 µM and a GI50 [30] of 13.7 µM.

Reference: PubChem BioAssay (NCI)
